From PubChem BioAssay AID248 (DTP/NCI, 2004)
Values joined by “and” are separate entries in the source; they are usually repeats but may differ in a detail not shown here. Equal values may be shown once. Toxic doses and inconclusive results are not listed.

Tested on: L1210 leukemia ip in BDF1 mice, survival T/C
Assay: NCI In Vivo Anticancer Drug Screen. Data for tumor model L1210 Leukemia (intraperitoneal) in B6D2F1 (BDF1) mice
Details: higher = longer survival
Summary of the method: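 Value reflects the ratio of survival in compound-treated mice to survival in vehicle-treated controls, with both groups carrying the same transplanted tumor.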

## CC1CCC(NC(=O)N(CCCl)N=O)CC1 (stereo unspecified)
endpoint: mean survival time, dose: 20.0 mg/kg/injection, schedule: Q01DX001 (iv), vehicle: Klucel (hydroxypropylcellulose) (HPC)
  T/C: 332 % of control
endpoint: mean survival time, dose: 20.0 mg/kg/injection, schedule: Q01DX001 (iv), vehicle: clinical formulation
  T/C: 371 % of control
endpoint: mean survival time, dose: 20.0 mg/kg/injection, schedule: Q01DX Z (ip), vehicle: Klucel (hydroxypropylcellulose) (HPC)
  T/C: 166 % of control
endpoint: mean survival time, dose: 20.0 mg/kg/injection, schedule: Q04DX004 (ip), vehicle: saline with Tween-80
  T/C: 290 % of control
endpoint: mean survival time, dose: 22.0 mg/kg/injection, schedule: Q01DX001 (ip), vehicle: clinical formulation
  T/C: 255 % of control
endpoint: mean survival time, dose: 22.0 mg/kg/injection, schedule: Q01DX001 (ip), vehicle: saline
  T/C: 326 % of control
endpoint: mean survival time, dose: 22.0 mg/kg/injection, schedule: Q01DX001 (iv), vehicle: clinical formulation
  T/C: 250 % of control
endpoint: mean survival time, dose: 22.0 mg/kg/injection, schedule: Q01DX001 (iv), vehicle: saline
  T/C: 202 % of control
endpoint: mean survival time, dose: 24.0 mg/kg/injection, schedule: Q01DX001 (ip), vehicle: other
  T/C: 252 % of control
endpoint: mean survival time, dose: 24.0 mg/kg/injection, schedule: Q01DX001 (ip), vehicle: saline with Tween-80
  T/C: 436 % of control
endpoint: mean survival time, dose: 24.0 mg/kg/injection, schedule: Q01DX001 (oral), vehicle: other
  T/C: 364 % of control
endpoint: mean survival time, dose: 25.0 mg/kg/injection, schedule: Q01DX001 (ip), vehicle: other
  T/C: 300 % of control
endpoint: mean survival time, dose: 25.0 mg/kg/injection, schedule: Q01DX001 (ip), vehicle: saline
  T/C: 382 % of control
endpoint: mean survival time, dose: 25.0 mg/kg/injection, schedule: Q07DX003 (ip), vehicle: Klucel (hydroxypropylcellulose) (HPC)
  T/C: 214 % of control
endpoint: mean survival time, dose: 26.0 mg/kg/injection, schedule: Q01DX009 (ip), vehicle: saline with Tween-80
  T/C: 97 % of control and 101 % of control
endpoint: mean survival time, dose: 27.0 mg/kg/injection, schedule: Q01DX001 (ip), vehicle: other
  T/C: 283 % of control
endpoint: mean survival time, dose: 30.0 mg/kg/injection, schedule: Q01DX001 (ip), vehicle: other
  T/C: 321 % of control
endpoint: mean survival time, dose: 31.0 mg/kg/injection, schedule: Q01DX001 (ip), vehicle: other
  T/C: 357 % of control
endpoint: mean survival time, dose: 33.0 mg/kg/injection, schedule: Q01DX001 (ip), vehicle: saline
  T/C: 326 % of control
endpoint: mean survival time, dose: 33.0 mg/kg/injection, schedule: Q01DX001 (iv), vehicle: saline
  T/C: 297 % of control
endpoint: mean survival time, dose: 40.0 mg/kg/injection, schedule: Q01DX001 (ip), vehicle: Klucel (hydroxypropylcellulose) (HPC)
  T/C: 180 % of control
endpoint: mean survival time, dose: 40.0 mg/kg/injection, schedule: Q01DX001 (ip), vehicle: clinical formulation
  T/C: 404 % of control
endpoint: mean survival time, dose: 40.0 mg/kg/injection, schedule: Q01DX001 (iv), vehicle: Klucel (hydroxypropylcellulose) (HPC)
  T/C: 395 % of control
endpoint: mean survival time, dose: 40.0 mg/kg/injection, schedule: Q01DX001 (iv), vehicle: clinical formulation
  T/C: 188 % of control and 251 % of control
endpoint: mean survival time, dose: 40.0 mg/kg/injection, schedule: Q04DX004 (ip), vehicle: saline with Tween-80
  T/C: 123 % of control
endpoint: mean survival time, dose: 45.0 mg/kg/injection, schedule: Q01DX001 (ip), vehicle: other
  T/C: 304 % of control
endpoint: mean survival time, dose: 50.0 mg/kg/injection, schedule: Q01DX001 (ip), vehicle: other
  T/C: 226 % of control
endpoint: mean survival time, dose: 50.0 mg/kg/injection, schedule: Q01DX001 (ip), vehicle: saline
  T/C: 326 % of control and 360 % of control
endpoint: mean survival time, dose: 50.0 mg/kg/injection, schedule: Q07DX003 (ip), vehicle: Klucel (hydroxypropylcellulose) (HPC)
  T/C: 121 % of control
endpoint: mean survival time, dose: 62.0 mg/kg/injection, schedule: Q01DX001 (ip), vehicle: other
  T/C: 109 % of control
endpoint: mean survival time, dose: 64.0 mg/kg/injection, schedule: Q04DX002 (ip), vehicle: saline with Tween-80
  T/C: 294 % of control and 313 % of control
endpoint: mean survival time, dose: 67.0 mg/kg/injection, schedule: Q01DX001 (ip), vehicle: other
  T/C: 230 % of control
endpoint: mean survival time, dose: 72.0 mg/kg/injection, schedule: Q01DX001 (ip), vehicle: other
  T/C: 113 % of control
endpoint: mean survival time, dose: 75.0 mg/kg/injection, schedule: Q01DX001 (ip), vehicle: saline
  T/C: 219 % of control and 296 % of control
endpoint: mean survival time, dose: 91.0 mg/kg/injection, schedule: Q01DX001 (oral), vehicle: other
  T/C: 280 % of control and 306 % of control and 388 % of control
endpoint: mean survival time, dose: 400.0 mg/kg/injection, schedule: Q01DX001 (ip), vehicle: saline with Tween-80
  T/C: 100 % of control
endpoint: median survival time, dose: 1.8 mg/kg/injection, schedule: Q01DX009 (ip), vehicle: saline
  T/C: 318 % of control
endpoint: median survival time, dose: 7.5 mg/kg/injection, schedule: Q01DX009 (ip), vehicle: saline
  T/C: 211 % of control
endpoint: median survival time, dose: 12.5 mg/kg/injection, schedule: Q01DX001 (ip), vehicle: saline with Tween-80
  T/C: 118 % of control and 121 % of control
endpoint: median survival time, dose: 15.0 mg/kg/injection, schedule: Q01DX009 (ip), vehicle: saline
  T/C: 96 % of control
endpoint: median survival time, dose: 100.0 mg/kg/injection, schedule: Q01DX001 (ip), vehicle: saline with Tween-80
  T/C: 106 % of control and 109 % of control
